# Results: patent publication US20260138083A1, “CARBON DIOXIDE CONCENTRATOR” (NIPPON KAYAKU KABUSHIKI KAISHA, priority 2023, published 2026)
# Assay: Oxidation-reduction resistance evaluation (cyclic voltammetry)
# Format: physicochemical
# Conditions: 0.1 mol/L in 1.0 mol/L aqueous sodium hydrogen carbonate; glass-like carbon electrode, Ag/AgCl reference; sweep rate 100 mV/sec
# Method: The fluoflavine compound represented by the formula (1-2) was dissolved in an aqueous solution (1.0 mol/L) of sodium hydrogen carbonate (manufactured by Tosoh Corporation, an industrial product) so that the concentration was 0.1 mol/L to produce an electrolyte liquid 10. The electrolyte liquid 10 was added into a sample vial for voltammetry (manufactured by BAS Inc., No. 001056), and a Teflon™ cap for voltammetry (manufactured by BAS Inc., 012671) was attached. A Pt counter electrode (manufactured by BAS Inc., No. 002222), a GCE glass-like carbon electrode (manufactured by BAS Inc., 6.0×3.0 mm, No. 002012), and a saturated KCl/silver/silver chloride reference electrode (manufactured by BAS Inc., No. 013503) were fixed with the Teflon™ cap so as to be immersed in the electrolyte liquid 10, and measurement of cyclic voltammetry was performed with a multi-electrochemical measurement system (manufactured by Hokuto Denko Co., Ltd., HZ-Pro). The potential scanning range was set to −500 mV to 700 mV, and a sweep rate was set to 100 mV/see to perform the measurement.
# An electrolyte liquid 12 was prepared in the same manner except that the fluoflavine compound represented by the formula (1-2) in the oxidation-reduction resistance evaluation 1 was changed to the compound represented by the formula (1-17). […]
compound,measurement,value
O=S(=O)([O-])c1cc(O)c(O)c(S(=O)(=O)[O-])c1.[Na+].[Na+] [formula (1-17)],"oxidation-reduction resistance (cyclic voltammogram, first cycle)",oxidized and then decomposed
